Laboratory results reported in patent US8968700B2, “Imaging of protease activity in live cells using activity based probes” (The Board of Trustees of the Leland Stanford Junior …, priority 2005, dated 2015).
Values belong to the molecule of their own block, whether it stands above or below them.

Columns and labels:
tumor tissues = test: Ex vivo imaging of tumor tissue cryo-sections; type: in vivo, mouse; settings: 24 hours after probe injection, Cy5 channel
Procedure: Tumors from mice injected with either GB123 or GB125 were extracted 24 hours after probe injection and molded in OCT placed in tert-butanol cooled with liquid nitrogen. Cryo-sections (10 μm) of tumors were mounted with Fluoromount and imaged using a Zeiss 200M fluorescent microscope using a 40× lens and a Cy5 filter.

[1] = test system: MDA-MB 231 or C2C12/ras tumors; test: In vivo labeling of live mice with active probe and control inactive probe; set-up: species or system mouse
Procedure: Two to four weeks prior to imaging MDA-MB 231 or C2C12/ras cells (a myoblast cell line wherein ras blocks differentiation) at 2×10^6 cell per spot were injected subcutaneous to the back of Balb-c nude mice.
Mice bearing tumors of similar size were injected intravenous via the tail vein with a DMSO/PBS solution of GB123 or GB125 (0.8-1.1 μg/gr mice). DMSO/PBS was locally injected directly into tumors in indicated mice, 15 minutes prior to probe injection. Fluorescent intensity as photons per second per centimeter square per steradian (p/s/cm^2/sr) was recorded from living mice, (data not shown). Images were taken at various time points (e.g., 1 min., 5 hrs. and 22 hrs.) after probe injection using an IVIS 200 imaging system equipped with a Cy5.5 filter.

[2] = test system: MDA MB-231 or MDA MB-435 cells; test: Labeling of active cysteine proteases in intact monolayers of tumor cell lines, SDS-PAGE; type: cell-based; settings: 1 μM, four hours
Procedure: GB123 (1 μg) dissolved in DMSO/PBS was injected via the tail vein. Fluorescent images of living mice taken using an IVIS 200 imaging system equipped with a Cy5.5 filter at various time points after GB123 injection show localization of the probe to a tumor site. […] Labeling of active cysteine proteases in cell lines used to generate the tumors was carried out on SDS-PAGE. Intact monolayers of MDA MB-231 or MDA MB-435 cells were either pre-treated with the general papain family protease inhibitor JPM-OEt (50 μM) or with control DMSO (0.1%) for one hour and labeled by addition of GB123 (1 μM) to culture media for four hours. Crude detergent lysates were normalized for total protein, separated by SDS-PAGE, and visualized by scanning of the gel with a Typhoon flatbed laser scanner. […] All of these specific activities were sensitive to pre-treatment with the general inhibitor JPM-OEt. […] Plotted values are expressed as percentage of fluorescence measured relative to the signal observed at two hours post injection of probe.

MDA-MB 231 tumors = test: In vivo imaging of cysteine protease activity in tumor-bearing mice (IVIS 200); set-up: species or system mouse; settings: tail vein injection
Procedure: Three weeks prior to imaging, MDA-MB 435 or MDA-MB 231 cells (3×10^6 cell per site) were subcutaneously injected into the back left and right side of a Balb-c nude mouse. As is known in the literature, MDA-MB-435, expresses ALP56 (aspartic-like protease 56 kDa), which has homology to aspartic proteases, such as cathepsin D. Similarly, a trypsin-like protease secreted from MDA MB-231 cells can promote cell migration through autocrine activation of PAR-2. GB123 (1 μg) dissolved in DMSO/PBS was injected via the tail vein. Fluorescent images of living mice taken using an IVIS 200 imaging system equipped with a Cy5.5 filter at various time points after GB123 injection show localization of the probe to a tumor site. […] Labeling of active cysteine proteases in cell lines used to generate the tumors was carried out on SDS-PAGE. Intact monolayers of MDA MB-231 or MDA MB-435 cells were either pre-treated with the general papain family protease inhibitor JPM-OEt (50 μM) or with control DMSO (0.1%) for one hour and labeled by addition of GB123 (1 μM) to culture media for four hours. Crude detergent lysates were normalized for total protein, separated by SDS-PAGE, and visualized by scanning of the gel with a Typhoon flatbed laser scanner. […] Plotted values are expressed as percentage of fluorescence measured relative to the signal observed at two hours post injection of probe.

[3] = test system: protease species in tumor lysates; test: Biochemical analysis of in vivo labeled tumors, SDS-PAGE of lysates; set-up: species or system mouse; settings: FIG. 6a
Text: Tumors from mice described in Example 7 were lysed in a detergent buffer. Crude lysates were normalized for total protein, separated by SDS-PAGE, and visualized by scanning of the gel with a Typhoon flatbed laser scanner, fluorescent images of corresponding mice are shown below gel images, where spotted areas indicate fluorescent readings, as obtained in Example 7. […] Lysates from a C2C12/ras tumor locally injected with DMSO/PBS were immuno precipitated using anti cathepsin B or cathepsin L antibodies as indicated. Samples were separated by SDS-PAGE, and visualized by scanning of the gel with a Typhoon flatbed laser scanner, as shown in FIG. 6b. The antibodies precipitated cat B and cat L complexes, indicating specific labeling of these proteases.

bovine cathepsin B [4] = target: T1, bovine cathepsin B (Bos taurus, UniProt P07688); test: Kinetics of inhibition, progress curve method (kass); type: biochemical; settings: bovine cathepsin B 1 nM; substrate Z-RR-AMC 10 μM; pseudo-first order
Procedure: (§1) The kinetics of inhibition was determined by progress curve method under pseudo-first order conditions with at least 10-fold molar excess of inhibitor. Recorded progress curves were analyzed by non-linear regression according to the following equation (Ref 36).
(§2) [P]=vz(1−e^−k·t)/k where [P] is the product, vz is the velocity at time zero and k is the pseudo first order rate constant. Apparent rate constant (kapp) was determined from the slope of plot k versus [I]. Due to irreversible and competitive mechanism of inhibition, kapp was converted to the association constant (kass) using the equation below: kass=kapp(1+[S]/KM)
(§3) Activity of human cathepsin L was measured using the fluorogenic substrate Z-FRAMC37 (Bachem, USA) (Km=7.1 μM) and cathepsin B was assayed against the fluorogenic substrate Z-RR-AMC38 (Bachem, USA) (Km=114 μM). Concentration of substrates during the measurement was 10 μM. Cathepsins B and L (1 nM final concentrations) were incubated with inhibitor concentrations, ranging from 10 to 2000 nM, in the presence of 10 μM of appropriate substrate. Total volume during the measurement was 100 μl. Increase of fluorescence (370 nm excitation, […] emission) was continuously monitored for 30 minutes by Spectramax M5 spectrofluorimeter.
(§4) (Molecular Devices, USA) and inhibition curves were recorded. DMSO concentration during all measurements was 3.5%.

human cathepsin L [5] = target: T2, human cathepsin L (Homo sapiens, UniProt P07711); test: as above; type: biochemical; settings: human cathepsin L 1 nM; substrate Z-FR-AMC 10 μM; pseudo-first order
Procedure: as §1, §2, §3, §4

MCF-10A cells = test: Imaging in three-dimensional cell culture on Cultrex, confocal microscopy; type: cell-based; settings: JPM-OEt 50 μM
Procedure: In these experiments, reconstituted basement membrane, Cultrex (Trevigen) was mixed with 1 μM GB111 or GB117 with or without JPM-OEt (50 μM). MCF-10A cells were grown three-dimensional cultures on Cultrex containing probes with or without inhibitor for 3 days then imaged by confocal microscopy using a water immersion lens (Zeiss).
MCF-10A cells were grown in 3D culture on reconstituted basement membrane extracted from an EHS mouse sarcoma (Cultrex from Trevigen) as previously described 35. GB117 or GB111 was added to Cultrex (1 μM final concentration) upon cell seeding and day 3 structures were imaged as described below. Day 8 structures grown Cultrex without probes were treated with 1 μM GB111 for 3 hours in assay media (culture media with 2% horse serum and 5 ng/mL EGF). Cells were washed overnight in assay media, fixed and imaged as described below.

human cathepsin L [6] = target: T2, human cathepsin L; test: Recombinant cathepsin labeling, SDS-PAGE fluorescent scan; type: biochemical; set-up: gift from Dr. V. Turk, Jozef Stefan Institute, Slovenia; settings: labeling by GB111 and GB117
Procedure: (§5) 0.7 μg recombinant human Cathepsin L (a generous gift from Dr. V. Turk Jozef, Stefan institute Slovenia) or 0.4 μg bovine Cathepsin B (Sigma) in reaction buffer (50 mM acetate, 2 mM DTT and 5 mM MgCl2, pH 5.5) were treated with 25 μM JPM-OEt for 30 min (indicated samples) at room temperature. Increasing concentrations of GB111, GB117, were added to appropriate samples for 30 min. The reaction was stopped by adding sample buffer X4 (40% glycerol, 0.2M Tris/HCl 6.8, 20% β-mercaptoethanol, 12% SDS and 0.4 mg/ml bromophenol blue). Half of the sample was separated on a 12% SDS gel and scanned by a Typhoon laser flatbed scanner at 532/580.

bovine cathepsin B [7] = target: T1, bovine cathepsin B; test: as above; type: biochemical; settings: labeling by GB111 and GB117
Procedure: as §5

[8] = test system: endogenous cathepsin activity; test: In vivo whole animal imaging with spectral imager; set-up: species or system mouse; settings: 100 mg/kg IP 2 hours prior to GB117
Text: Photographs illustrating fluorescence imaging of endogenous cathepsin activity in live mice using the quenched activity-based probe GB117 were obtained with the CR1-Maestro™ Spectral imager, and comparisons were made between mice (a) with no probe, (b) with GB117 and (c) with GB117 plus the general cathepsin inhibitor JPM-OEt.
Areas of more intense labeling in the center of the animal (likely labeling of the liver, an organ with high cathepsin activity) were seen.
This work utilized a spectral imager (CRI Maestro) at the small animal imaging facility at Stanford. This new technology makes it possible to acquire the entire spectrum of light emission. Following spectral acquisition, the wavelengths specific to the injected probe can be defined, and autofluorescence subtracted. […] Techniques for spectral imaging in connection with multiple chromosome labels (“chromosome painting”) are known and may be adapted for use in vivo. See U.S. Pat. Nos. 5,936,731 and 6,690,817. A spectral imager is capable of collecting spatial (imaging) information as well as spectral information at every pixel in the image. This 3 dimensional data set enables the detailed study of both absorptive and fluorescent, histological and cellular material. […]

NIH-3T3 cells = test: Imaging protease activity in live cells, fluorescence microscopy; type: cell-based, mouse; settings: JPM-OEt 50 μM, 1 hour
Procedure: In these experiments (data not shown), cultures of NIH-3T3 cells were either pre-treated with the general papain family protease inhibitor JPM-OEt (50 μM) or with control DMSO (0.1%) for 1 hour and labeled by addition of GB111 or GB117 (1 μM) to growth media for 4-5 hours. The acidotropic lysosomal marker LysoTracker (which produces a green color) was added and cells were imaged using an inverted fluorescent microscope (Nikon). Cells were also treated and analyzed after being washed for 3 hours in growth media containing JPM-OEt (50 μM) or DMSO (0.1%) prior to imaging. As a result, red fluorescence—indicating protease activity, green fluorescence—indicating lysosomal compartments, and yellow fluorescence resulting from overlap in green and red signals was observed.
NIH 3T3 cells (165,000 cells/well) were seeded on glass cover slips in six-well tissue culture plates containing growth medium 1 day before treatment. Cells were either pretreated with the general papain family protease inhibitor JPM-OEt (50 μM) or with control DMSO (0.1%) for 1 hour. Cells were labeled by addition of GB111 or GB117 (1 μM) to growth media at pH 7.4 for 4-5 hours. Cells were transferred to growth media without phenol red. LysoTracker (50 nM final concentration) was added minutes before cells were imaged using an inverted fluorescent microscope (Nikon Diaphot-300 microscope with the 60 (NA 1.4) objective). […]

T2 sequence (P07711 114-333): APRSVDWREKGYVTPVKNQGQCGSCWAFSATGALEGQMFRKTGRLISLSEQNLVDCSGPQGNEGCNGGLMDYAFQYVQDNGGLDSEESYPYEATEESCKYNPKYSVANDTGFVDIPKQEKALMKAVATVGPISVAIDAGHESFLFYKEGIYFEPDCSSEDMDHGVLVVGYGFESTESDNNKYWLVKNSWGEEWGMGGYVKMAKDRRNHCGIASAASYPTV

Molecule: CCN1C(=CC=CC=CC2=[N+](CCCCCC(=O)NCCCC[C@H](NC(=O)[C@H](Cc3ccccc3)NC(=O)OCc3ccccc3)C(=O)COC(=O)c3c(C)cccc3C)c3ccc(S(=O)(=O)O)cc3C2(C)C)C(C)(C)c2cc(S(=O)(=O)O)ccc21 [GB123]
fluorescent signal in tumor cryo-sections (tumor tissues): accumulation of the specific fluorescent signal
fluorescence after 1 min. ([1]; MDA-MB-231 injected mice): showed fluorescence
retention of observable signal ([1]; intravenous via tail vein, 0.8-1.1 μg/gr): at least 22 hrs
labeling of cysteine protease activities in cell lines [2]: increased labeling of a number of cysteine protease activities in MDA-MB 231 relative to the MDA-MB 435 cells
fluorescent signal in tumor (MDA-MB 231 tumors): accumulation of fluorescent signal was observed over time
fluorescence of labeled bands in tumor lysates [3]: significant fluorescence

kass (inhibition rate constant) (bovine cathepsin B [4]): 38500 ± 7700 M^−1s^1
kass (inhibition rate constant) (human cathepsin L [5]): 296400 ± 18100 M^−1s^1
Molecule: Cc1cccc(C)c1C(=O)OCC(=O)[C@H](CCCCN)NC(=O)[C@H](Cc1ccccc1)NC(=O)OCc1ccccc1 [GB111-NH2]

effect of inhibitor pre-treatment on probe labeling (human cathepsin L [6]): specifically competed
effect of inhibitor pre-treatment on probe labeling (bovine cathepsin B [7]): specifically competed
Molecule: JPM-OEt
effect of inhibitor on GB117 staining in 3D culture (MCF-10A cells): completely blocked
effect of inhibitor pre-treatment on GB117 signal in live mouse [8]: significantly reduced fluorescent signal in the entire animal
effect of inhibitor pre-treatment on GB117 labeling pattern (NIH-3T3 cells): blocked
